Source: patent US9439436B2, “Use of aryl carbamates in agriculture and other plant-related areas” (North Carolina State University, priority 2010, dated 2016)

Legend:
[1] = tested on: bacteria; conditions: literature statement; cited from earlier work
[2] = tested on: R. salexigens; conditions: reported by Yamada et al.; cited from earlier work
[3] = tested on: multi-drug resistant Acinetobacter baumannii (MDRAB); assay: biofilm inhibition, crystal violet reporter assay; type: cell-based
[4] = tested on: S. epidermidis; assay: biofilm inhibition, crystal violet reporter assay; type: cell-based
[5] = tested on: E. coli; assay: biofilm inhibition, crystal violet reporter assay; type: cell-based
[6] = tested on: vancomycin-resistant Enterococcus faecium (VRE); assay: biofilm inhibition, crystal violet reporter assay; type: cell-based
[7] = tested on: methicillin-resistant S. aureus (MRSA); assay: biofilm inhibition, crystal violet reporter assay; type: cell-based
[8] = tested on: R. salexigens; assay: biofilm inhibition, crystal violet reporter assay; type: cell-based, Rhodospirillum salexigens
[9] = tested on: S. aureus strains 29213, 29740, and 25923; assay: testing of the library on S. aureus strains; type: cell-based; conditions: refers to Tables 2 and 3, not given

Row | melting point | Compound | also measured
1 | 55 to 57 °C | CCNC(=S)N1CCCc2ccccc21 [Compound 7h, N-ethyl-3,4-dihydroquinoline-1(2H)-carbothioamide] | –
2 | 70 to 73 °C | Nc1ccc(CCNC(=O)OCc2ccccc2)cc1 [Compound 8c, benzyl 4-aminophenethylcarbamate] | –
3 | 104 to 106 °C | CC(C)[C@@H]1CC[C@@H](C)C[C@H]1OC(=O)NCCc1ccc(Br)cc1 [Compound 11a, (1R, 2 S, 5R)-2-isopropyl-5-methylcyclohexyl 4-bromophenethylcarbamate] | –
4 | 64 to 66 °C | CC(C)(C)OC(=O)NCCn1nccn1 [Compound 5e, tert-butyl 2-(2H-1,2,3-triazol-2-yl)ethylcarbamate] | –
5 | 137 to 139 °C | CCNC(=O)NCCc1ccc(Br)cc1 [Compound 11g, 1-(4-bromophenethyl)-3-ethylurea] | –
6 | 109 °C | CCNC(=O)NCCn1nccn1 [Compound 5g, 1-(2-(2H-1,2,3-triazol-2-yl)ethyl)-3-ethylurea] | –
7 | 59 to 63 °C | CC(C)[C@@H]1CC[C@@H](C)C[C@H]1OC(=O)NCCc1ccccn1 [Compound 9a, (1R, 2 S, 5R)-2-isopropyl-5-methylcyclohexyl 2-(pyridin-2-yl)ethylcarbamate] | activity against 29213, 29740, and 25923 (in words) [9]: worked well; IC50 values against MRSA (in words) ([7]; refers to Tables 2 and 3, not given): lowest IC50 values
8 | 95 to 98 °C | COc1ccc(CCNC(=O)O[C@@H]2C[C@H](C)CC[C@H]2C(C)C)cc1 [Compound 12a, (1R, 2 S, 5R)-2-isopropyl-5-methylcyclohexyl 4-methoxyphenethylcarbamate] | –
9 | 91 to 93 °C | CCNC(=S)NCCn1nccn1 [Compound 5h, 1-(2-(2H-1,2,3-triazol-2-yl)ethyl)-3-ethylthiourea] | –
10 | 109 to 112 °C | CCNC(=O)NCCc1c[nH]c2ccccc12 [Compound 10g, 1-(2-(1H-indol-3-yl)ethyl)-3-ethylurea] | –
11 | 88 to 91 °C | CCNC(=S)N1CCc2ccccc21 [Compound 6h, N-ethylindoline-1-carbothioamide] | –
12 | 63 to 65 °C | CCOC(=O)NCCc1ccc(Br)cc1 [Compound 11d, ethyl 4-bromophenethylcarbamate] | –
13 | 111 to 113 °C | CCNC(=O)N1CCc2ccccc21 [Compound 6g, N-ethylindoline-1-carboxamide] | –
14 | 57 to 59 °C | CC(C)[C@H]1CC[C@H](C)C[C@@H]1OC(=O)NCCc1ccccn1 [Compound 9k, (1 S,2R, 5 S)-2-isopropyl-5-methylcyclohexyl 2-(pyridin-2-yl)ethylcarbamate] | –
15 | 68 to 70 °C | CCSC(=O)NCCc1c[nH]c2ccccc12 [Compound 10b, S-ethyl 2-(1H-indol-3-yl)ethylcarbamothioate] | –
16 | 101 to 103 °C | CCNC(=O)NCCc1ccc(N)cc1 [Compound 8g, 1-(4-aminophenethyl)-3-ethylurea] | –

The next lines start with the molecule.

Row | Compound | melting point | also measured
17 | Cc1ccc(C(C)C)c(O)c1 [thymol] | – | antimicrobial activity [1]: known to possess antimicrobial activity
18 | CC(C)CCC[C@@H](C)C1CCC2[C@@H]3CC=C4C[C@@H](OC(=O)NCCn5nccn5)CC[C@]4(C)[C@H]3CC[C@]12C (some centres unmarked) | 135 to 139 °C | –
19 | CC1CCC(C(C)C)C(O)C1 (single isomer, unassigned; (-)) [(−)-menthol] | – | antimicrobial activity [1]: known to possess antimicrobial activity
20 | CC(C)[C@@H]1CC[C@@H](C)C[C@H]1OC(=O)NC1Cc2ccccc2C1 [Compound 3a, (1R, 2 S, 5R)-2-isopropyl-5-methylcyclohexyl 2,3-dihydro-1H-inden-2-ylcarbamate] | 167 to 170 °C | –
21 | CCNC(=O)NC1Cc2ccccc2C1 [Compound 3g, 1-(2,3-dihydro-1H-inden-2-yl)-3-ethylurea] | 117 °C | –
22 | Cc1ccc(C(C)C)cc1O [carvacrol] | – | antimicrobial activity [1]: known to possess antimicrobial activity
23 | CC(C)[C@@H]1CC[C@@H](C)C[C@H]1OC(=O)NCCCc1ccccc1 [Compound 4a, (1R, 2 S, 5R)-2-isopropyl-5-methylcyclohexyl 3-phenylpropylcarbamate] | 75 to 78 °C | –
24 | CC(C)(C)OC(=O)NC1Cc2ccccc2C1 [Compound 3e, tert-butyl 2,3-dihydro-1H-inden-2-ylcarbamate] | 51 to 53 °C | –
25 | CC(C)[C@@H]1CC[C@@H](C)C[C@H]1OC(=O)NCCc1ccccc1 [Compound 2a, (1R, 2 S, 5R)-2-isopropyl-5-methylcyclohexyl phenethylcarbamate] | 84 to 86 °C | –
26 | CCOC(=O)NCCc1ccccc1 [Compound 2d, ethyl N-(2-phenethyl) carbamate] | – | antibiofilm activity against Rhodospirillum salexigens [2]: moderate antibiofilm activity; % Inhibition (200 μM 2d) of biofilm formation [3]: 52.0%; % Inhibition (200 μM 2d) of biofilm formation [4]: 63.1%; % Inhibition (200 μM 2d) of biofilm formation [5]: 40.8%; % Inhibition (200 μM 2d) of biofilm formation [6]: 80.2%; % Inhibition (200 μM 2d) of biofilm formation ([7]; 200 μM, MRSA): 68.1%; % Inhibition (200 μM 2d) of biofilm formation [8]: 59.7%
27 | CC(C)CCC[C@@H](C)C1CCC2[C@@H]3CC=C4C[C@@H](OC(=O)N5CCc6ccccc65)CC[C@]4(C)[C@H]3CC[C@]12C (some centres unmarked) | 157 to 159 °C | –
28 | O=C(NC1Cc2ccccc2C1)OCc1ccccc1 [Compound 3c, benzyl 2,3-dihydro-1H-inden-2-ylcarbamate] | 159 to 161 °C | –
29 | CC(C)CCC[C@@H](C)C1CCC2[C@@H]3CC=C4C[C@@H](OC(=O)NCCCc5ccccc5)CC[C@]4(C)[C@H]3CC[C@]12C (some centres unmarked) | 87 to 89 °C | –
30 | CCNC(=O)NCCCc1ccccc1 [Compound 4g, 1-ethyl-3-(3-phenylpropyl)urea] | 48 °C | –
31 | CC(C)CCC[C@@H](C)C1CCC2[C@@H]3CC=C4C[C@@H](OC(=O)NCCc5ccc(Br)cc5)CC[C@]4(C)[C@H]3CC[C@]12C (some centres unmarked) | 142 to 145 °C | –
32 | CCNC(=O)NCCc1ccccc1 [Compound 2g, 1-ethyl-3-phenethylurea] | 75 to 77 °C | –
33 | CC(C)CCC[C@@H](C)C1CCC2[C@@H]3CC=C4C[C@@H](OC(=O)N5CCCc6ccccc65)CC[C@]4(C)[C@H]3CC[C@]12C (some centres unmarked) | 107 to 110 °C | –
34 | CCNC(=S)NCCc1ccccc1 [Compound 2h, 1-ethyl-3-phenethylthiourea] | 56 to 58 °C | –
35 | CCSC(=O)NC1Cc2ccccc2C1 [Compound 3b, S-ethyl 2,3-dihydro-1H-inden-2-ylcarbamothioate] | 107 to 110 °C | –
36 | CCNC(=S)NCCCc1ccccc1 [Compound 4h, 1-ethyl-3-(3-phenylpropyl)thiourea] | 51 to 53 °C | –
37 | CC(C)CCC[C@@H](C)C1CCC2[C@@H]3CC=C4C[C@@H](OC(=O)NCCc5ccccc5)CC[C@]4(C)[C@H]3CC[C@]12C (some centres unmarked) | 74 to 76 °C | –
38 | CCNC(=S)NC1Cc2ccccc2C1 [Compound 3h, 1-(2,3-dihydro-1H-inden-2-yl)-3-ethylthiourea] | 87 to 91 °C | –
39 | CC(C)CCC[C@@H](C)C1CCC2[C@@H]3CC=C4C[C@@H](OC(=O)NC5Cc6ccccc6C5)CC[C@]4(C)[C@H]3CC[C@]12C (some centres unmarked) | 114 to 116 °C | –
